Earlier results, collected in patent US20110212192A1, “INGESTIBLES CONTAINING SUGAR AND CINNAMON OR GINSENG” (ALLEGIANCE EQUITY CORPORATION, priority 2008, published 2011).

Assays:
Details in all cases: immunoblotting; mouse 3T3-L1 adipocytes
insulin receptor (IR) = system: insulin receptor (IR)
[1] = system: glucose transporter 4 (GLUT4)
tristetraprolin (TTP) = system: tristetraprolin (TTP)

level of insulin receptor (IR) protein (insulin receptor (IR)): increased
Substance: insulin
level of glucose transporter 4 (GLUT4) protein [1]: increased
level of tristetraprolin (TTP) protein (tristetraprolin (TTP)): increased
